Where a name gives a salt, the structure may show the parent alone.
Legend:
[1] = Hygroscopicity study by dynamic vapor sorption (DVS) analysis; assay type: physicochemical; conditions: for weight gain %: 25° C., DVS sorption; for water absorbed (water adsorption): 90% RH at 25° C.
Procedure: Hygroscopicity study is performed using Surface Measurement Systems DVS-1. The sample is placed on a microbalance in the instrument and the weight change during the sorption at 25° C. is monitored. One of the programs consists of a sorption scan from 0 to 90% relative humidity (RH) at 5% RH increments and the sample is allowed to equilibrate for 360 minutes or until equilibration had been attained at each step.
The hygroscopicity study is performed by using dynamic vapor sorption (DVS) analysis.

[2] = Photostability study, D65 lamp 4000 lux, 25° C./60% RH, HPLC; assay type: physicochemical
Procedure: (§1) • HPLC data are obtained by Waters Alliance 2695 HPLC system with 2996 PDA detector using the following conditions; • Column: XBridge Phenyl (3.5 micrometers, 4.6×150 mm), • Eluent: acetonitrile/0.3% perchloric acid=35:65, • Detection: UV at 215 nm, • Flow rate: 1 mL/min, and • Column temperature: 40° C.
Photostability samples are set in Nagano Science LTL-200D3CJ-14. The samples are placed in the chamber and stored under 25° C./60% RH condition and irradiated with a D65 lamp on light condition of 4000 lux. HCl-salt Crystalline Form A, HCl-salt Amorphous, and Free-base Amorphous samples store for 13, 26 and 50 days under the condition are analyzed by HPLC, respectively.
FIGS. 7, 8 and 9 show the data of degradation products except for the existing products at initial samples (Day 0), i.e., definitely arising peaks on the HPLC chart after storing initial samples under light exposure. The relative retention time (RRT) represents a ratio of retention time (RT) of a target peak to RT of the main peak. In case of the appearance of the peak at same RRT at least two consecutive storing periods of 13, 26 and 50 days, the arising peak is recognized as a degradation product.

[3] = assay type: physicochemical; conditions: for other arising degradation products (not existing at Day 0) / remaining: 40° C./75% RH, storage period of 50 days, HPLC
Procedure: as §1
Solid-state stability study is performed using Nagano Science Constant temperature/humidity control chamber LH-20-11M, LH-21-11M, LTL-200D3CJ-14 or LTX-01. The samples are placed in the chamber and exposed under 25° C./60% RH, 40° C./75% RH and/or irradiated with the light such as D65 lamp or Xenon lamp. The crystalline form, thermal behavior, purity and/or weight change of the resultant sample after the exposure or irradiation are evaluated by XRPD, TG/DTA or DSC, HPLC, microbalance, respectively.

[4] = Solubility study in buffers and water for injection; assay type: physicochemical; conditions: aqueous buffer, thermodynamic from solid, buffers pH 1.06, 2.98, 4.44, 7.34, 7.40, 9.22 and WFI, 5 mg in 20 microL
Procedure: Each 5 mg of HCl-salt Crystalline Form A was weighed in a vial and each 20 microL of buffers (pH 1.06, 2.98, 4.44, 7.34, 7.40 and 9.22) and WFI (water for injection) was added to the vial. After the mixture was shaken with a vortex mixer and stood still for 15 min, no insoluble matter was observed. The mixture kept a clear solution after still standing for 2 days.

Chiral analysis by HPLC = assay type: physicochemical; conditions: CHIRALPAK IC HPLC
Procedure: • High Performance Liquid Chromatography (HPLC) measurement • HPLC data are obtained by Waters Alliance 2695 HPLC system with 2996 PDA detector using the following conditions; • Column: DAICEL CHIRALPAK IC (5 micrometers, 4.6×250 mm), • Eluent: n-hexane/ethanol/diethylamine=87/13/0.1 (v/v/v), • Detection: UV at 254 nm, • Flow rate: 1 mL/min, and • Column temperature: 40° C. • Data processing is performed with Empower 3 software supplied from Waters Corporation

motilin receptor = target: T1, motilin receptor (Homo sapiens, UniProt O43193); test: Motilin receptor agonistic activity, reporter gene assay; assay type: cell-based; conditions: cell expressing motilin receptor and reporter gene; compared with initial sample
T1 construct: 'the cell expressing motilin receptor and reporter gene'
From the text: Motilin receptor agonistic activity is identified by reporter gene assay using the cell expressing motilin receptor and reporter gene. The dose-response curve of assay sample is plotted and calculated to determine an agonistic activity (EC50).

T1 sequence (O43193 whole entry, species assumed): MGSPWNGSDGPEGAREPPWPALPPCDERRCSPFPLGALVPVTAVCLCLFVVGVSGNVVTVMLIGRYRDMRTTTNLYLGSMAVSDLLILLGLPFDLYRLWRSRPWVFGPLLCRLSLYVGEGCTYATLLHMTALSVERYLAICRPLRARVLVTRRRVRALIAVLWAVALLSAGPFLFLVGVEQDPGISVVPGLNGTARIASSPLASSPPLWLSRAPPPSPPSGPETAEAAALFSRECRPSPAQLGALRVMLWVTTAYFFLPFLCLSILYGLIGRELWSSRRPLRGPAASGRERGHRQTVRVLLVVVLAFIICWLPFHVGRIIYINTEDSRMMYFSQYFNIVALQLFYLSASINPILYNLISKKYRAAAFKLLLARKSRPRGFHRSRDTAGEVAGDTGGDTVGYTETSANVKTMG

Row | Structure (SMILES) | arising degradation products (peaks) due to irradiating light ([2]; 13 days) [peaks] | arising degradation products (peaks) due to irradiating light ([2]; 26 days) [peaks] | arising degradation products (peaks) due to irradiating light ([2]; 50 days) [peaks] | other arising degradation products (not existing at Day 0) [3] | remaining [3] [%] | weight gain % ([1]; 50% RH) [%] | weight gain % ([1]; 60% RH) [%] | weight gain % ([1]; 70% RH) [%] | weight gain % ([1]; 80% RH) [%] | water absorbed (water adsorption) [1] | weight gain % ([1]; 90% RH) [%] | stability in chiral analysis (Chiral analysis by HPLC) | further results
1 | CC1(C)C(=O)N(C2CCN(C(=O)[C@H](CCc3ccccc3)NC(=O)[C@@H]3CCCNC3)CC2)c2ccccc21.Cl [HCl-salt Amorphous, (R)—N—((S)-1-(4-(3,3-dimethyl-2-oxoindolin-1-yl)piperidin-1-yl)-1-oxo-4-phenylbutan-2-yl)piperidine-3-carboxamide amorphous solid of hydrochloride] | 2 | 5 | 5 | one | 97.0 | – | – | – | – | – | – | – | weight gain % ([1]; 50% RH, hydrochloride): 5.2%; weight gain % ([1]; 60% RH, hydrochloride): 7.6%; weight gain % ([1]; 70% RH, hydrochloride): 9.4%; weight gain % ([1]; 80% RH, hydrochloride): 13.3%; water absorbed (water adsorption) ([1]; hydrochloride): 20.5 wt %; weight gain % ([1]; 90% RH, hydrochloride): 20.5%
2 | CC1(C)C(=O)N(C2CCN(C(=O)[C@H](CCc3ccccc3)NC(=O)[C@@H]3CCCNC3)CC2)c2ccccc21 [HCl-salt Crystalline Form A, (R)—N—((S)-1-(4-(3,3-dimethyl-2-oxoindolin-1-yl)piperidin-1-yl)-1-oxo-4-phenylbutan-2-yl)piperidine-3-carboxamide hydrochloride Crystalline Form A] | – | – | – | no other arising degradation products | – | 0.0 | 0.2 | 0.4 | 1.6 | less than or equal to 3.4 wt % | 3.4 | preferable stability | solubility at 15 min [4]: > 250 mg/mL; arising degradation products due to irradiating light ([2]; storing periods of 13, 26 and 50 days): no arising degradation products; changes in appearance, XRPD, IR (KBr), m.p. (DSC onset) and potency ([3]; during the storage period): no significant changes; agonistic activity (EC50) (motilin receptor): high potency consistent with initial sample
3 | CC1(C)C(=O)N(C2CCN(C(=O)[C@H](CCc3ccccc3)NC(=O)[C@@H]3CCCNC3)CC2)c2ccccc21.Cl [HCl-salt Crystalline Form B, (R)—N—((S)-1-(4-(3,3-dimethyl-2-oxoindolin-1-yl)piperidin-1-yl)-1-oxo-4-phenylbutan-2-yl)piperidine-3-carboxamide hydrochloride Crystalline Form B] | – | – | – | – | – | 0.0 | 0.0 | 0.0 | 4.9 | ≤ 8.6 wt % | 8.6 | preferable stability | –
4 | CC1(C)C(=O)N(C2CCN(C(=O)[C@H](CCc3ccccc3)NC(=O)[C@@H]3CCCNC3)CC2)c2ccccc21.O=C(O)CNC(=O)c1ccccc1 [hippurate salt crystalline, (R)—N—((S)-1-(4-(3,3-dimethyl-2-oxoindolin-1-yl)piperidin-1-yl)-1-oxo-4-phenylbutan-2-yl)piperidine-3-carboxamide hippuric acid salt (hippurate salt)] | – | – | – | – | – | – | – | – | – | 16.0 wt % | – | – | observation in hygroscopicity study ([1]; 90% RH): partial deliquescence is observed
5 | CC1(C)C(=O)N(C2CCN(C(=O)[C@H](CCc3ccccc3)NC(=O)[C@@H]3CCCNC3)CC2)c2ccccc21 [Free-base Amorphous, (R)—N—((S)-1-(4-(3,3-dimethyl-2-oxoindolin-1-yl)piperidin-1-yl)-1-oxo-4-phenylbutan-2-yl)piperidine-3-carboxamide] | 2 | 4 | 4 | four | 97.2 | 5.2 | 7.1 | 9.5 | 11.7 | 17.9 wt % | 17.9 | – | –
6 | CC1(C)C(=O)N(C2CCN(C(=O)[C@H](CCc3ccccc3)NC(=O)[C@@H]3CCCNC3)CC2)c2ccccc21.CS(=O)(=O)O [mesylate salt crystalline, (R)—N—((S)-1-(4-(3,3-dimethyl-2-oxoindolin-1-yl)piperidin-1-yl)-1-oxo-4-phenylbutan-2-yl)piperidine-3-carboxamide methanesulfonic acid salt (mesylate salt)] | – | – | – | – | – | – | – | – | – | 16.9 wt % | – | – | water adsorption ([1]; 60% RH): 3.7 wt %

— US12552776B2, “Crystalline forms” (priority 2021, dated 2026)
